The results in this text go back to patent publication US20080096950A1, “Compounds Useful In Therapy” (priority 2006, published 2008).

The assay has as its target T1, Progesterone receptor (PR) (Homo sapiens, UniProt P06401).
T1 construct: endogenous in cells; host or cells: T47D human breast mammary carcinoma cells
T1 sequence (P06401 1-933): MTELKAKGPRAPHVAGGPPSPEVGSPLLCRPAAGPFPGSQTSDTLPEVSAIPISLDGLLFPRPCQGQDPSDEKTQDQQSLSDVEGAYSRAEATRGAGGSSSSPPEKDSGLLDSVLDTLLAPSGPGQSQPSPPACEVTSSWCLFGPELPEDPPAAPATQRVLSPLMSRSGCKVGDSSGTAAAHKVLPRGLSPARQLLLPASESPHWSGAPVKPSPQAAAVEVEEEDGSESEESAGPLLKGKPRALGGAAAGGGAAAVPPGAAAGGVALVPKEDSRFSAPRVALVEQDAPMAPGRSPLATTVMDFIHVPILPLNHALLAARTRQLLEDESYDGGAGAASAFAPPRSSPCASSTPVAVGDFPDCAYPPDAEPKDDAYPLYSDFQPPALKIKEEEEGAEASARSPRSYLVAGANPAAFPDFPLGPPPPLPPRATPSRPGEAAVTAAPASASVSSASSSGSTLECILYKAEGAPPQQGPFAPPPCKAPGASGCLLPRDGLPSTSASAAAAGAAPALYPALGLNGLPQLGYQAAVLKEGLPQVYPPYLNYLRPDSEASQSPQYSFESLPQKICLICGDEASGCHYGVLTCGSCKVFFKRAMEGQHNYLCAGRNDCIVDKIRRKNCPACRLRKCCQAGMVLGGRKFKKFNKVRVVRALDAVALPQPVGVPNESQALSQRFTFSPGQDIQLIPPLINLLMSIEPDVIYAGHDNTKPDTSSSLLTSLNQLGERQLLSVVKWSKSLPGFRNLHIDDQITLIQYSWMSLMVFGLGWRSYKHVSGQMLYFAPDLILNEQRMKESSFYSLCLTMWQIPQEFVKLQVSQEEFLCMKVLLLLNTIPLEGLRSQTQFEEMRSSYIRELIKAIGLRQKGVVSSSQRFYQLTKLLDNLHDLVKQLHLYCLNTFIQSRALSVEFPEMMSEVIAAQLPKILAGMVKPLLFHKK
Put plainly: In vitro functional assay for progesterone receptor (PR) antagonists: inhibition of progesterone-induced alkaline phosphatase expression in T47D cells. In kind it is cell-based. Conditions: antagonist format; T47D human mammary carcinoma cells; alkaline phosphatase inhibition vs 5 nM progesterone. From the text: 1.0 In Vitro Functional Assay for Progesterone Receptor (PR) Antagonists, Agonists and Modulators
The assay for PR antagonism takes advantage of the extensively reported modulation of alkaline phosphatase (AP) expression in human breast T47D mammary carcinoma cells {Beck, et al., D. P. (1993). The progesterone antagonist RU486 acquires agonist activity upon stimulation of cAMP signalling pathways. Proc Natl Acad Sci U S A 90, 4441-4445; Fensome, et al. (2002). New progesterone receptor antagonists: 3,3-disubstituted-5-aryloxindoles. Bioorg. Med. Chem. Lett., 12, 3487-3490; Zhang et al., (2002a). 6-Aryl-1,4-dihydro-benzo d 1,3 oxazin-2-ones: a novel class of potent, selective, and orally active nonsteroidal progesterone receptor antagonists. J. Med. Chem., 45, 4379-4382; Zhang et al., (2003). Novel 6-aryl-1,4-dihydrobenzo d oxazine-2-thiones as potent, selective, and orally active nonsteroidal progesterone receptor agonists. Bioorg. Med. Chem. Lett., 13, 1313-1316; Zhang et al., (2002b). Potent nonsteroidal progesterone receptor agonists: synthesis and SAR study of 6-aryl benzoxazines. Bioorg. Med. Chem. Lett., 12, 787-790; Zhang, Z. et al., (2000). In vitro characterization of trimegestone: a new potent and selective progestin. Steroids 65, 637-643.}. […] In the absence of progesterone any agonist activity is also observed as an induction of AP activity. By running the assay in two formats (± progesterone (P4)), compounds behaving as PR antagonists, agonists, partial agonists or modulators with mixed agonist/antagonist activity can be identified.
Briefly, T47D cells are grown by propagating in DMEM with phenol red+10% FCS+2 mM Glutamine at 37° C./5% CO2. At 70-80% confluence, the media is exchanged for phenol red free DMEM+5% CS-FCS (Assay media). Cells are incubated overnight in assay media then harvested and frozen in assay media containing 10% DMSO at 1.5e7 cells/mL in 2 mL aliquots using a Planer and immediately stored in liquid nitrogen. V1als are removed from liquid nitrogen storage and immediately thawed in a water bath at 37° C. The cell suspension is added dropwise to 20 mL of assay media, then the tube centrifuged at 1000 rpm for 4 minutes, the supernatant is discarded and the pellet re-suspended in 20 mL assay media. T47D cells are then plated at 8750 cells/well in 35 μL assay media in sufficient white solid 384 well TC plates for the assay. For the agonist format assay a further 10 μL of assay media is added to each well. These plates are then cultured for 3-6 hours at 37° C./5% CO2 before compound addition.
Compounds are prepared by in 100% DMSO, half log concentrations from 4 mM in 384 well plates 5 μL/well (referred to here as ‘grandmother plates’). Progesterone is 100 μM made up in ethanol and PBS (i.e. add 1 mL ethanol to progesterone initially to help dissolving) and stored in 0.5-1 mL aliquots at −20° C.
Using a multidrop (Thermolabsystems), 60 μL/well of buffer is added to a 384 well plate—this will be the ‘mother plate’. Add 45 μLwell buffer to grandmother plate using the multidrop (=400 μM 10% DMSO dilution). Mixed and spun to remove air bubbles.
20 μL is taken from the grandmother plate (400 μM 10% DMSO) and added to the mother plate (=100 μM 2.5% DMSO). Mixed and spun to remove air bubbles
The PlateMate Plus was used to add 5 μL MAX/MIN to cell plates
Then 5 μL compounds are added from the mother plate(after removing max/min Platemate tips: columns 1 and 24)
25 nM progesterone in assay media is prepared from 100 μM stock (12.5 μL progesterone/50 mL media), from which 10 μL per well is transferred to the assay plate using the Platemate Plus (already containing cells & compound).
The cell plates are incubated @ 37° C., 5% CO2 overnight (at least 16 hours). […]
By IC50 is commonly meant the point on the concentration scale where inhibition reaches its midpoint. A higher IC50 goes with a need for much substance. In turn, `Cc1cc(Oc2c(C3CC3)nn(C3COC3)c2C2CC2)cc(C)c1C#N` [Example 1, 4-(3,5-Dicyclopropyl-1-oxetan-3-yl-1H-pyrazol-4-yloxy)-2,6-dimethyl-benzonitrile] gave an IC50 of 0.0826 µM. This counts as double-digit nanomolar.
As for `Cc1cc(Oc2c(C3CC3)nn(C3CCS(=O)(=O)C3)c2C2CC2)cc(C)c1C#N` (racemic) [Example 7, rac-4-[3,5-Dicyclopropyl-1-(1,1-dioxo-tetrahydro-1λ^6-thiophen-3-yl)-1H-pyrazol-4-yloxy]-2,6-dimethyl-benzonitrile], the IC50 was 0.0138 µM. Compared with the last compound, the IC50 is about 6-fold lower.
With `Cc1cc(Oc2c(C3CC3)nn(C3CS(=O)(=O)C3)c2C)cc(C)c1C#N` [Example 10, 4-(3-Cyclopropyl-5-methyl-1-(1,1-dioxo-thietan-3-yl)-1H-pyrazol-4-yloxy)-2,6-dimethyl-benzonitrile], the IC50 turned out to be 0.0276 µM.
The value for `Cc1cc(Oc2c(C)nn(C3CS(=O)(=O)C3)c2C2CC2)cc(C)c1C#N` [Example 11, 4-(3-Methyl-5-cyclopropyl-1-(1,1-dioxo-thietan-3-yl)-1H-pyrazol-4-yloxy)-2,6-dimethyl-benzonitrile] was 0.0504 µM; that for `Cc1cc(Oc2c(C3CC3)nn(C3CCS(=O)(=O)C3)c2C2CC2)cc(C)c1C#N` (single isomer, unassigned) [Example 9, 4-[3,5-Dicyclopropyl-1-(1,1-dioxo-tetrahydro-1λ^6*-thiophen-3-yl)-1H-pyrazol-4-yloxy]-2,6-dimethyl-benzonitrile] was 0.0259 µM; that for `Cc1cc(Oc2c(C3CC3)nn(C3CCOCC3)c2C2CC2)cc(C)c1C#N` [Example 6, 4-[3,5-Dicyclopropyl-1-(tetrahydro-pyran-4-yl)-1H-pyrazol-4-yloxy]-2,6-dimethyl-benzonitrile] was 0.0563 µM.
Under `Cc1cc(Oc2c(C3CC3)nn(C3CS(=O)(=O)C3)c2C2CC2)cc(C)c1C#N` [Example 2, 4-[3,5-Dicyclopropyl-1-(1,1-dioxo-thietan-3-yl)-1H-pyrazol-4-yloxy]-2,6-dimethyl-benzonitrile] stands 0.0147 µM; under `Cc1cc(Oc2c(C3CCC3)nn(C3CCS(=O)(=O)C3)c2C)cc(C)c1C#N` (racemic) [Example 13, rac-4-[3-Cyclobutyl-1-(1,1-dioxo-tetrahydro-1λ^6-thiophen-3-yl)-5-methyl-1H-pyrazol-4-yloxy]-2,6-dimethyl-benzonitrile], 0.202 µM; under `Cc1cc(Oc2c(C)nn(C3CCS(=O)(=O)C3)c2C2CCC2)cc(C)c1C#N` (racemic) [Example 12, rac-4-[5-Cyclobutyl-1-(1,1-dioxo-tetrahydro-1λ^6-thiophen-3-yl)-3-methyl-1H-pyrazol-4-yloxy]-2,6-dimethyl-benzonitrile], 1.49 µM.
Regarding `Cc1cc(Oc2c(C3CC3)nn(C3CS(=O)(=O)C3)c2Cl)cc(C)c1C#N` [Example 20, 4-[5-Chloro-3-cyclopropyl-1-(1,1-dioxo-1λ^6-thietan-3-yl)-1H-pyrazol-4-yloxy]-2,6-dimethyl-benzonitrile], the IC50 is 0.022 µM. This IC50 is about 68-fold lower than that of the compound before.
The value for `Cc1cc(Oc2c(C)nn(C3CCS(=O)(=O)C3)c2C2CC2)cc(C)c1C#N` (racemic) [Example 14, rac-4-[5-Cyclopropyl-1-(1,1-dioxo-tetrahydro-1λ^6-thiophen-3-yl)-3-methyl-1H-pyrazol-4-yloxy]-2,6-dimethyl-benzonitrile] was 0.133 µM.
`Cc1cc(Oc2c(Cl)nn(C3CS(=O)(=O)C3)c2C2CC2)cc(C)c1C#N` [Example 21, 4-[3-Chloro-5-cyclopropyl-1-(1,1-dioxo-1λ^6-thietan-3-yl)-1H-pyrazol-4-yloxy]-2,6-dimethyl-benzonitrile] had an IC50 of 0.108 µM.
`Cc1cc(Oc2c(C3CC3)nn(C3CCS(=O)(=O)CC3)c2C2CC2)cc(C)c1C#N` [Example 5, 4-[3,5-Dicyclopropyl-1-(1,1-dioxo-hexahydro-1 λ^6-thiopyran-4-yl)-1H-pyrazol-4-yloxy]-2,6-dimethyl-benzonitrile]: the half-inhibitory concentration (IC50) came out at 0.0913 µM.
The value for `Cc1cc(Oc2c(C3CC3)nn(C3CCS(=O)(=O)C3)c2C2CC2)cc(C)c1C#N` (single isomer, unassigned) [Example 8, 4-[3,5-Dicyclopropyl-1-(1,1-dioxo-tetrahydro-1λ^6-thiophen-3-yl)-1H-pyrazol-4-yloxy]-2,6-dimethyl-benzonitrile] was 0.0338 µM; that for `Cc1cc(Oc2c(C3CC3)nn(C3CCOC3)c2C2CC2)cc(C)c1C#N` (stereo not drawn) [Example 3, 4-[3,5-Dicyclopropyl-1-(tetrahydro-furan-3-yl)-1 H-pyrazol-4-yloxy]-2,6-dimethyl-benzonitrile] was 0.0674 µM.
